Target: activated ERK2 (Homo sapiens (Human), UniProt P28482)
Test: Activated ERK2 kinase assay (AlphaScreen, ERKtide peptide phosphorylation)
Format: biochemical
Conditions: […] ERK2, 200 nM ERKtide peptide, 35 μM ATP, 30 min preincubation; read-out: ERK2 IC50

Chain of activated ERK2 (P28482 whole entry): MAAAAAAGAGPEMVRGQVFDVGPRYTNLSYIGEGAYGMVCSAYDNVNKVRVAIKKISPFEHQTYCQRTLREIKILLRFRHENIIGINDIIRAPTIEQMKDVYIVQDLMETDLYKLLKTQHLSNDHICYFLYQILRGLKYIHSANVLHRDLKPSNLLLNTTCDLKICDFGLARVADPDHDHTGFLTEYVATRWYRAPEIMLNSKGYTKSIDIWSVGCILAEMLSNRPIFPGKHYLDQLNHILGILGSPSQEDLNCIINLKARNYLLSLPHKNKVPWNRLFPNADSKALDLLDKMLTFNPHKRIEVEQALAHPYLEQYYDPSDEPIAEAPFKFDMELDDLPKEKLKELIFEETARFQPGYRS

Structure (SMILES)	IC50
CN1CC(NC(=O)N2Cc3nc(Nc4ccccc4)ncc3C2(C)C)C1 [compound 153, 5,5-dimethyl-N-(1-methylazetidin-3-yl)-2-(phenylamino)-5H-pyrrolo[3,4-d]pyrimidine-6(7H)-carboxamide]	125 µM
CC1(C)c2cnc(Nc3ccccc3)nc2CN1C(=O)NCCO [compound 164, N-(2-hydroxyethyl)-5,5-dimethyl-2-(phenylamino)-5H-pyrrolo[3,4-d]pyrimidine-6(7H)-carboxamide]	18.4 µM
CN1CCN(C(=O)N2Cc3nc(Nc4ccccc4)ncc3C2(C)C)CC1(C)C [compound 149, (5,5-dimethyl-2-(phenylamino)-5H-pyrrolo[3,4-d]pyrimidin-6(7H)-yl)(3,3,4-trimethylpiperazin-1-yl)methanone]	37.7 µM
CC(C)[C@@H](C)NC(=O)N1Cc2nc(NC3CCOCC3)ncc2C1(C)C [compound 33, (R)-5,5-dimethyl-N-(3-methylbutan-2-yl)-2-((tetrahydro-2H-pyran-4-yl)amino)-5H-pyrrolo[3,4-d]pyrimidine-6(7H)-carboxamide]	0.596 µM
CC1(C)c2cnc(NC3CC3)nc2CN1C(=O)N[C@H](CO)c1ccccc1 [compound 31, (S)-2-(cyclopropylamino)-N-(2-hydroxy-1-phenylethyl)-5,5-dimethyl-5H-pyrrolo[3,4-d]pyrimidine-6(7H)-carboxamide]	0.317 µM
CC1(C)c2cnc(NC3CCOCC3)nc2CN1C(=O)NCC1CCCOC1 (stereo not shown) [compound 15, 5,5-dimethyl-N-((tetrahydro-2H-pyran-3-yl)methyl)-2-((tetrahydro-2H-pyran-4-yl)amino)-5H-pyrrolo[3,4-d]pyrimidine-6(7H)-carboxamide]	0.842 µM
CN1CCC(Nc2ncc3c(n2)CN(C(=O)N[C@H](CO)c2ccccc2)C3(C)C)CC1 [compound 61, (S)-N-(2-hydroxy-1-phenylethyl)-5,5-dimethyl-2-((1-methylpiperidin-4-yl)amino)-5H-pyrrolo[3,4-d]pyrimidine-6(7H)-carboxamide]	21 µM
CC1(C)c2cnc(NC3CCOCC3)nc2CN1C(=O)NCc1cc(F)cc(S(C)(=O)=O)c1 [compound 107, N-(3-fluoro-5-(methylsulfonyl)benzyl)-5,5-dimethyl-2-((tetrahydro-2H-pyran-4-yl)amino)-5H-pyrrolo[3,4-d]pyrimidine-6(7H)-carboxamide]	0.044 µM
Cc1cc(Nc2ncc3c(n2)CN(C(=O)N[C@H](CO)c2ccccc2)C3(C)C)ccn1 [compound 45, (S)-N-(2-hydroxy-1-phenylethyl)-5,5-dimethyl-2-((2-methylpyridin-4-yl)amino)-5H-pyrrolo[3,4-d]pyrimidine-6(7H)-carboxamide]	0.625 µM
CNC(=O)N1Cc2nc(NC3CCOCC3)ncc2C1(C)C [compound 49, N,5,5-trimethyl-2-((tetrahydro-2H-pyran-4-yl)amino)-5H-pyrrolo[3,4-d]pyrimidine-6(7H)-carboxamide]	0.988 µM
CC1(C)c2cnc(NC3CCOCC3)nc2CN1C(=O)N[C@H](CO)C1CCCCC1 [compound 17, (S)-N-(1-cyclohexyl-2-hydroxyethyl)-5,5-dimethyl-2-((tetrahydro-2H-pyran-4-yl)amino)-5H-pyrrolo[3,4-d]pyrimidine-6(7H)-carboxamide]	0.067 µM
CC1(C)c2cnc(NC3CCOCC3)nc2CN1C(=O)N[C@@H]1CCN(Cc2cccc(Cl)c2)C1 [compound 104]	0.037 µM
O=C(NCc1ccc(Cl)cc1)N1Cc2nc(NC3CCOCC3)ncc2C12CCC2 [compound 76, N-(4-chlorobenzyl)-2′-((tetrahydro-2H-pyran-4-yl)amino)spiro[cyclobutane-1,5′-pyrrolo[3,4-d]pyrimidine]-6′(7′H)-carboxamide]	0.031 µM
CC(C)NC(=O)N1Cc2nc(NC3CCOCC3)ncc2C1(C)C [compound 51, N-isopropyl-5,5-dimethyl-2-((tetrahydro-2H-pyran-4-yl)amino)-5H-pyrrolo[3,4-d]pyrimidine-6(7H)-carboxamide]	0.938 µM
CC1(C)c2cnc(NC3CCOCC3)nc2CN1C(=O)N[C@H](CCO)c1ccccc1 [compound 138, (R)-N-(3-hydroxy-1-phenylpropyl)-5,5-dimethyl-2-((tetrahydro-2H-pyran-4-yl)amino)-5H-pyrrolo[3,4-d]pyrimidine-6(7H)-carboxamide]	0.073 µM
CC1(C)c2cnc(NC3CCOCC3)nc2CN1C(=O)N[C@@H]1CCN(Cc2ccccc2F)C1 [compound 146, (R)-N-(1-(2-fluorobenzyl)pyrrolidin-3-yl)-5,5-dimethyl-2-((tetrahydro-2H-pyran-4-yl)amino)-5H-pyrrolo[3,4-d]pyrimidine-6(7H)-carboxamide]	0.014 µM

Other lines, results leading:

IC50	Structure (SMILES)
3.03 µM	CN1CCN(C(=O)N2Cc3nc(Nc4ccccc4)ncc3C2(C)C)C(Cc2ccccc2)C1 (stereo not shown) [compound 154, (2-benzyl-4-methylpiperazin-1-yl)(5,5-dimethyl-2-(phenylamino)-5H-pyrrolo[3,4-d]pyrimidin-6(7H)-yl)methanone]
36.6 µM	Cn1cncc1CNC(=O)N1Cc2nc(Nc3ccccc3)ncc2C1(C)C [compound 160, 5,5-dimethyl-N-((1-methyl-1H-imidazol-5-yl)methyl)-2-(phenylamino)-5H-pyrrolo[3,4-d]pyrimidine-6(7H)-carboxamide]
0.018 µM	CC1(C)c2cnc(NC3CCOCC3)nc2CN1C(=O)NCc1cccc(S(C)(=O)=O)c1 [compound 4, 5,5-dimethyl-N-(3-(methylsulfonyl)benzyl)-2-((tetrahydro-2H-pyran-4-yl)amino)-5H-pyrrolo[3,4-d]pyrimidine-6(7H)-carboxamide]
0.45 µM	CC(=O)N1CC2C(C1)C2Nc1ncc2c(n1)CN(C(=O)N[C@H](CO)c1ccccc1)C2(C)C (stereo partly drawn) [compound 68, 2-((3-acetyl-3-azabicyclo[3.1.0]hexan-6-yl)amino)-N-((S)-2-hydroxy-1-phenylethyl)-5,5-dimethyl-5H-pyrrolo[3,4-d]pyrimidine-6(7H)-carboxamide]
15.3 µM	CC1(C)c2cnc(NC3CCOCC3)nc2CN1C(=O)N[C@@H]1CCCNC1 [compound 7, (R)-5,5-dimethyl-N-(piperidin-3-yl)-2-((tetrahydro-2H-pyran-4-yl)amino)-5H-pyrrolo[3,4-d]pyrimidine-6(7H)-carboxamide]
0.007 µM	CC1(C)c2cnc(NC3CCOCC3)nc2CN1C(=O)N[C@H](CO)c1cccc(S(C)(=O)=O)c1 [compound 117, (S)-N-(2-hydroxy-1-(3-(methylsulfonyl)phenyl)ethyl)-5,5-dimethyl-2-((tetrahydro-2H-pyran-4-yl)amino)-5H-pyrrolo[3,4-d]pyrimidine-6(7H)-carboxamide]
5.31 µM	CC1(C)c2cnc(NCC3CCCCO3)nc2CN1C(=O)N[C@H](CO)c1ccccc1 (stereo partly drawn) [compound 72, N-((S)-2-hydroxy-1-phenylethyl)-5,5-dimethyl-2-(((tetrahydro-2H-pyran-2-yl)methyl)amino)-5H-pyrrolo[3,4-d]pyrimidine-6(7H)-carboxamide]
0.082 µM	CC1(C)c2cnc(N[C@H]3CC[C@H](O)CC3)nc2CN1C(=O)N[C@H](CO)c1ccccc1 [compound 60, N-((S)-2-hydroxy-1-phenylethyl)-2-(((1r,4S)-4-hydroxycyclohexyl)amino)-5,5-dimethyl-5H-pyrrolo[3,4-d]pyrimidine-6(7H)-carboxamide]
0.031 µM	CC1(C)c2cnc(NC3CCOCC3)nc2CN1C(=O)NCc1ccccc1 [compound 46, N-benzyl-5,5-dimethyl-2-((tetrahydro-2H-pyran-4-yl)amino)-5H-pyrrolo[3,4-d]pyrimidine-6(7H)-carboxamide]
8.83 µM	COC(=O)N1CC[C@H](Nc2ncc3c(n2)CN(C(=O)N[C@H](CO)c2ccccc2)C3(C)C)C1 [compound 65, (S)-methyl 3-((6-(((S)-2-hydroxy-1-phenylethyl)carbamoyl)-5,5-dimethyl-6,7-dihydro-5H-pyrrolo[3,4-d]pyrimidin-2-yl)amino)pyrrolidine-1-carboxylate]
0.146 µM	CC1(C)c2cnc(NC3CCC(F)(F)CC3)nc2CN1C(=O)N[C@H](CO)c1ccccc1 [compound 11, (S)-2-((4,4-difluorocyclohexyl)amino)-N-(2-hydroxy-1-phenylethyl)-5,5-dimethyl-5H-pyrrolo[3,4-d]pyrimidine-6(7H)-carboxamide]
2.34 µM	CC1(C)c2cnc(NC3CCOCC3)nc2CN1C(=O)N[C@H]1CCCNC1 [compound 6, (S)-5,5-dimethyl-N-(piperidin-3-yl)-2-((tetrahydro-2H-pyran-4-yl)amino)-5H-pyrrolo[3,4-d]pyrimidine-6(7H)-carboxamide]
0.208 µM	CN1CCC(Nc2ncc3c(n2)CN(C(=O)N[C@H](CO)c2ccccc2)C3(C)C)CC1=O (stereo partly drawn) [compound 82, N-((S)-2-hydroxy-1-phenylethyl)-5,5-dimethyl-2-((1-methyl-2-oxopiperidin-4-yl)amino)-5H-pyrrolo[3,4-d]pyrimidine-6(7H)-carboxamide]
0.492 µM	CN(C)C(=O)c1cccc(CNC(=O)N2Cc3nc(NC4CCOCC4)ncc3C2(C)C)c1 [compound 101, N-(3-(dimethylcarbamoyl)benzyl)-5,5-dimethyl-2-((tetrahydro-2H-pyran-4-yl)amino)-5H-pyrrolo[3,4-d]pyrimidine-6(7H)-carboxamide]

Target: RSK2 (Homo sapiens (Human), UniProt P51812)
Sequence (P51812 whole entry, species assumed): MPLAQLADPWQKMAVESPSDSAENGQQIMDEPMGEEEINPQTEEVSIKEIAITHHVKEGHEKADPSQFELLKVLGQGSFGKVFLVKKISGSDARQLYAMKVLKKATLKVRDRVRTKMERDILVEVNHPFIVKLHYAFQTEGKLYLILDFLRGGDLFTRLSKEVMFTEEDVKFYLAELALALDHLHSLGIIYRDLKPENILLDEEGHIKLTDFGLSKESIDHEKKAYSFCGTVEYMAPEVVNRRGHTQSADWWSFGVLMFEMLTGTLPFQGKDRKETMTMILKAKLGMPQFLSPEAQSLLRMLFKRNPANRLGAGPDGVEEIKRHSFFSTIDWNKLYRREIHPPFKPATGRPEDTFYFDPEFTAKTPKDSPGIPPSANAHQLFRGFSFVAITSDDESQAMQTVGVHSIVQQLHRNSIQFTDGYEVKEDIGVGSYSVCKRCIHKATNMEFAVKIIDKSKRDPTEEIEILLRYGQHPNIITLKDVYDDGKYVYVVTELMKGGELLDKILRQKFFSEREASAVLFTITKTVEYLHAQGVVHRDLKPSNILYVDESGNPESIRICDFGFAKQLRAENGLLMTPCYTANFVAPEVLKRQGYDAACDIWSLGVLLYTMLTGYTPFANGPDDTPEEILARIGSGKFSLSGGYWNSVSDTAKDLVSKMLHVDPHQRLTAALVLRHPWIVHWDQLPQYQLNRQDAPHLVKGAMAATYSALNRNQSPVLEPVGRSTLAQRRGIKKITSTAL
Test: In vitro inhibition of RSK2
Format: biochemical
Conditions: in vitro activity on RSK2; where multiple measurements were made, each value is reported
Method: The following Table 3 lists compounds that were tested for inhibition of RSK; the IC50 values are in micromolar units, and refer to inhibition of RSK1 and RSK2, respectively. Where multiple measurements were made, each value is reported.

Structure (SMILES)	IC50
CN1CC(NC(=O)N2Cc3nc(Nc4ccccc4)ncc3C2(C)C)C1 [compound 153, 5,5-dimethyl-N-(1-methylazetidin-3-yl)-2-(phenylamino)-5H-pyrrolo[3,4-d]pyrimidine-6(7H)-carboxamide]	1.37 µM
CC1(C)c2cnc(Nc3ccccc3)nc2CN1C(=O)NCCO [compound 164, N-(2-hydroxyethyl)-5,5-dimethyl-2-(phenylamino)-5H-pyrrolo[3,4-d]pyrimidine-6(7H)-carboxamide]	14 µM
CN1CCN(C(=O)N2Cc3nc(Nc4ccccc4)ncc3C2(C)C)CC1(C)C [compound 149, (5,5-dimethyl-2-(phenylamino)-5H-pyrrolo[3,4-d]pyrimidin-6(7H)-yl)(3,3,4-trimethylpiperazin-1-yl)methanone]	0.611 µM
C[C@@H](NC(=O)N1Cc2nc(Nc3ccccc3)ncc2C1(C)C)c1ccccc1 [compound 156, (R)-5,5-dimethyl-2-(phenylamino)-N-(1-phenylethyl)-5H-pyrrolo[3,4-d]pyrimidine-6(7H)-carboxamide]	2.57 µM

Next, values leading:

IC50	Structure (SMILES)
1.64 µM	CN1CCN(C(=O)N2Cc3nc(Nc4ccccc4)ncc3C2(C)C)C(Cc2ccccc2)C1 (stereo not shown) [compound 154, (2-benzyl-4-methylpiperazin-1-yl)(5,5-dimethyl-2-(phenylamino)-5H-pyrrolo[3,4-d]pyrimidin-6(7H)-yl)methanone]
5.65 µM	Cn1cncc1CNC(=O)N1Cc2nc(Nc3ccccc3)ncc2C1(C)C [compound 160, 5,5-dimethyl-N-((1-methyl-1H-imidazol-5-yl)methyl)-2-(phenylamino)-5H-pyrrolo[3,4-d]pyrimidine-6(7H)-carboxamide]
> 25 µM	C[C@H](NC(=O)N1Cc2nc(Nc3ccccc3)ncc2C1(C)C)c1ccccc1 [compound 169, (S)-5,5-dimethyl-2-(phenylamino)-N-(1-phenylethyl)-5H-pyrrolo[3,4-d]pyrimidine-6(7H)-carboxamide]

Source: patent US9546173B2 (Novartis AG, priority 2012, dated 2017)
